Results reported in PMC7950324, “A general method for quantifying ligand binding to unmodified receptors using Gaussia luciferase” (The Journal of Biological Chemistry, 2021).
Like-named read-outs stand apart in the source and are kept apart here.

Key:
[1] = target: T1, ɑ1AAR (Homo sapiens, UniProt P35348); assay: α1AAR ligand screening, plasma membrane–ligand BRET (α1AAR with GLuc–PM); settings: for inhibition at 10 µM: 20 min
[2] = target: AT1 angiotensin receptor (AT1R), untagged, rat (rat) (UniProt P25095); assay: FRET or BRET; PM‒ligand (bystander) BRET with GLuc‒PM, equilibrium competition: live HEK 293T cells with unmodified receptor, GLuc‒PM and DN-Dyn; a fixed fluorescent ligand (1 μM TAMRA‒AngII, 300 ng/ml biotinylated EGF on Alexa Fluor 488 streptavidin, or 100 μg/ml Alexa Fluor 488 human transferrin) and increasing unlabeled ligand, 2 h at room temperature
[3] = target: T2, AT1R (Rattus norvegicus, UniProt P25095); assay: Kinetic PM–ligand BRET, AT1R with GLuc–PM; assay type: binding
T2 construct: expressed in transfected cells; host or cells: HEK 293T
T2 sequence (P25095 1-359): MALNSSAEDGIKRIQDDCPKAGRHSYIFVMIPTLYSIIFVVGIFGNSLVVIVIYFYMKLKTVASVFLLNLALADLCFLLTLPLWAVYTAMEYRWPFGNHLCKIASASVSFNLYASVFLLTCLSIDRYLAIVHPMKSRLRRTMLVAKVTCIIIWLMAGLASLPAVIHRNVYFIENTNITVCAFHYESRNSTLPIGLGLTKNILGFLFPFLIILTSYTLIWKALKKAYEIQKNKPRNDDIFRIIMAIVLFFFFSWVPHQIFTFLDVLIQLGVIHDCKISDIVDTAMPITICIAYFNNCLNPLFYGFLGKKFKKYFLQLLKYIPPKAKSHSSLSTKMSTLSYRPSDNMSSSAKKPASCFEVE

[4] = target: T2, AT1R; assay: PM–ligand BRET equilibrium binding, untagged AT1R with GLuc–PM; settings: two site competitive fit
[5] = target: T3, NanoLuc–AT1R (Rattus norvegicus, UniProt P25095); assay: Receptor–ligand BRET equilibrium binding, NanoLuc–AT1R in HEK 293T cells; settings: 1 μM TAMRA–AngII, two site competitive fit, 2 h room temperature
T3 construct: secretion signal peptide of interleukin-6 (N); expressed in transfected cells; host or cells: HEK 293T
T3 sequence (P25095 1-359): T2 sequence (P25095 1-359)

[6] = target: T4, GLuc–AT1R (Rattus norvegicus, UniProt P25095); assay: Kinetic receptor–ligand BRET, GLuc–AT1R; assay type: binding
T4 construct: Gaussia luciferase signal peptide (N); expressed in transfected cells; host or cells: HEK 293T
T4 sequence (P25095 1-359): T2 sequence (P25095 1-359)

[7] = target: T4, GLuc–AT1R; assay: Receptor–ligand BRET equilibrium binding, GLuc–AT1R in HEK 293T cells; settings: 1 μM TAMRA–AngII, two site competitive fit, 2 h room temperature
[8] = target: T2, AT1R; assay: PM–ligand BRET equilibrium binding, untagged AT1R with NanoLuc–PM; settings: 1 μM TAMRA–AngII, two site competitive fit
[9] = target: T5, GLuc–ɑ1AAR (Homo sapiens, UniProt P35348); assay: Receptor–ligand BRET equilibrium binding, GLuc–α1AAR in HEK 293T cells
T5 construct: Gaussia luciferase signal peptide (N); […]; expressed in transfected cells; host or cells: HEK 293T

[10] = target: T1, ɑ1AAR; assay: PM–ligand BRET equilibrium binding, α1AAR with GLuc–PM; design: expressed in transfected cells; host or cells: HEK 293T
[11] = target: AT2 angiotensin receptor (AT2R), untagged, rat (rat) (UniProt P35351); assay: FRET or BRET; PM‒ligand (bystander) BRET with GLuc‒PM, equilibrium competition: live HEK 293T cells with unmodified receptor, GLuc‒PM and DN-Dyn; a fixed fluorescent ligand (1 μM TAMRA‒AngII, 300 ng/ml biotinylated EGF on Alexa Fluor 488 streptavidin, or 100 μg/ml Alexa Fluor 488 human transferrin) and increasing unlabeled ligand, 2 h at room temperature
[12] = read-out: plasma membrane-ligand BRET decrease (%) Replicate1
[13] = read-out: plasma membrane-ligand BRET decrease (%) Replicate2
[14] = 375 nM BODIPY FL–prazosin, one site competitive fit, receptor–ligand BRET
[15] = 375 nM BODIPY FL–prazosin, one site competitive fit, PM–ligand BRET

T1 sequence (P35348 whole entry): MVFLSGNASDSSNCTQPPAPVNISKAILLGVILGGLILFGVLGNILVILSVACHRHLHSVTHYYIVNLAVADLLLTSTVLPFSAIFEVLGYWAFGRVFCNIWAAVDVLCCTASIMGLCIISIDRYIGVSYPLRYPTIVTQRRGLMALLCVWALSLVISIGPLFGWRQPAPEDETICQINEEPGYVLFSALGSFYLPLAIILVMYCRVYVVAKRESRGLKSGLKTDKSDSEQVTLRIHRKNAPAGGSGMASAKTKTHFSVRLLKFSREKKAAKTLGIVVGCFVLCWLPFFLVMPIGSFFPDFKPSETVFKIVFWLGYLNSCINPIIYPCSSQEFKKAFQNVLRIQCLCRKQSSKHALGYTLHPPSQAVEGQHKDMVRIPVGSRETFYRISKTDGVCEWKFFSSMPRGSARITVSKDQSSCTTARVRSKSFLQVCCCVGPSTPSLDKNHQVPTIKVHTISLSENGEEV
T5 sequence (P35348 whole entry): as above
AT2 angiotensin receptor (AT2R), untagged, rat (rat), sequence (P35351 whole entry): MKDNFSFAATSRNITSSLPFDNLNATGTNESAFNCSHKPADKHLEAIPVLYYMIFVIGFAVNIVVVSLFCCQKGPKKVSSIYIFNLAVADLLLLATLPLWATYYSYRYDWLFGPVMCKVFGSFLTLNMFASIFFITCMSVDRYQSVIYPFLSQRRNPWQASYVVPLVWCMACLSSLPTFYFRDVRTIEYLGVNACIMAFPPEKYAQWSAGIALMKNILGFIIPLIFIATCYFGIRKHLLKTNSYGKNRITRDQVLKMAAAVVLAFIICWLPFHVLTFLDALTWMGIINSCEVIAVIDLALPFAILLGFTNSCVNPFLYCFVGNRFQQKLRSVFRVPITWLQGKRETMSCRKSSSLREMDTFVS

| Compound | inhibition at 10 µM [1, 12] [%] | inhibition at 10 µM [1, 13] [%] | further results |
| --- | --- | --- | --- |
| Cc1cc(C)c(CNC(=O)c2ccc(NC(=O)C3CC3)cc2)c(=O)[nH]1 [BCC0003661] | -7.67 | -9.71 |  |
| COc1ccc(C(=O)NCCN2CCN(C(=O)c3ccc(OC)c(OC)c3)CC2)cc1OC [BCC0048283] | 0.72 | 3.82 |  |
| CC(C)(C)Nc1nnc(Sc2ncnc3sccc23)s1 [BCC0117056] | -11.6 | -0.3 |  |
| O=C(c1noc2c1COc1ccccc1-2)N1CCN(c2cccc(Cl)c2)CC1 [BCC0066678] | -4.28 | -2.43 |  |
| COc1ccccc1NS(=O)(=O)c1ccc2c(c1)SC(C)C(=O)N2 (stereo not shown) [BCC0083047] | -3.44 | -2.12 |  |
| FC(F)(F)c1cccc(OCCn2cncn2)c1 [BCC0089082] | 2.21 | 4.76 |  |
| [Sar^1,Ile^4,Ile^8]-angiotensin II (SII) (peptide) |  |  | IC50 of the high-affinity site (IC50 Hi) [2]: 1280 nM |
| Cc1cc(S(=O)(=O)NCc2ccccc2)ccc1OCC(=O)N1CCN(C)CC1 [BCC0113627] | 1.05 | -3.63 |  |
| CCOc1nc2cccc(C(=O)O)c2n1Cc1ccc(-c2ccccc2-c2nnn[nH]2)cc1 [candesartan] |  |  | koff [3]: 0.000833 s⁻¹; kon [3]: 278000 M⁻¹ s⁻¹; IC50 ([4]; 1 μM TAMRA–AngII, GLuc–PM, read-out: IC50_Hi): 1.24 nM; IC50 ([4]; 1 μM TAMRA–AngII, GLuc–PM, read-out: IC50_Lo): 248000 nM; IC50 ([5]; read-out: IC50_Hi): 0.52 nM; IC50 ([5]; read-out: IC50_Lo): 1 nM; koff [6]: 0.00123 s⁻¹; kon [6]: 540000 M⁻¹ s⁻¹; IC50 ([7]; read-out: IC50_Hi): 0.207 nM; IC50 ([7]; read-out: IC50_Lo): 1.3 nM; IC50 ([8]; read-out: IC50_Hi): 1.29 nM; IC50 ([8]; read-out: IC50_Lo): 19.6 nM |
| CCCN1CCC(N2CCN(S(=O)(=O)c3ccc(C)cc3)CC2)CC1 [BCC0058402] | -0.92 | 2.58 |  |
| CN1CCCCC1C#CC(O)(c1ccccc1)c1ccccc1 (stereo not shown) [BCC0068132] |  |  | plasma membrane-ligand BRET decrease (%) Replicate1 [1]: -4,21%; plasma membrane-ligand BRET decrease (%) Replicate2 [1]: -5,19% |
| CC(NC(=O)C1CC1C)c1ccc(-n2cncn2)cc1 (stereo not shown) [BCC0008909] | 4.15 | -0.3 |  |
| O=C(CN1CCC(N2CCCCC2)CC1)N1CCC2(CC1)OCCO2 [BCC0092904] | -4.89 | -1.52 |  |
| Cc1ccnc(SCc2nc3ccccn3c2Br)n1 [BCC0020406] | -10.3 | -12 |  |
| CS(=O)(=O)Nc1c(O)ccc2c1CCCC2C1=NCCN1 (stereo not shown) [Compound A61603, A61603, reference compound] | -74 | -76 |  |
| O=C(NCCN1CCN(c2ccccc2)CC1)Nc1ccc2c(c1)OCCO2 [BCC0079473, 1-(2,3-Dihydro-1,4-benzodioxin-6-yl)-3-[2-(4-phenylpiperazin-1-yl)ethyl]urea] |  |  | Ki [9, 14]: 248 nM; Ki [10, 15]: 122 nM |
| O=C(CN1CCC(n2nnc3cc(F)ccc32)CC1)N1CCc2ccccc2C1 [BCC0061678, 1-(3,4-Dihydro-1H-isoquinolin-2-yl)-2-[4-(5-fluorobenzotriazol-1-yl)piperidin-1-yl]ethanone] |  |  | Ki [9, 14]: 274 nM; Ki [10, 15]: 180 nM |
| CCC(=O)c1ccc(OCCN2CCOCC2)cc1 [BCC0059938] | -1.24 | -1.63 |  |
| COc1ccc(-c2nnc(SCC(=O)Nc3cc(C)cc(C)c3)[nH]2)cc1 [BCC0072526, N-(3,5-Dimethylphenyl)-2-[[5-(4-methoxyphenyl)-1H-1,2,4-triazol-3-yl]sulfanyl]acetamide] |  |  | Ki [9, 14]: 215 nM; Ki [10, 15]: 86.1 nM |
| CN1CCN(C(=O)c2ccc(-n3nc(C(F)(F)F)c4c3CCCC4)cc2)CC1 [BCC0063211] | 3.59 | 4.59 |  |
| CC[C@H](C)[C@H](NC(=O)[C@@H]1CCCN1C(=O)[C@H](Cc1c[nH]cn1)NC(=O)[C@@H](NC(=O)[C@@H](NC(=O)[C@@H](NC(=O)[C@H](CCCNC(=N)N)NC(=O)CNC)C(C)C)[C@@H](C)CC)[C@@H](C)CC)C(=O)O [SII, [Sar^1,Ile^4,Ile^8]-angiotensin II] |  |  | IC50 ([4]; read-out: IC50_Hi, agonist binding, GLuc–PM (Fig. 2M)): 1280 nM |
| COc1ccccc1OCCNCC(O)COc1cccc2[nH]c3ccccc3c12 (stereo not shown) [carvedilol, reference compound] |  |  | Ki [9]: 62.7 nM; Ki [10]: 43.8 nM |
| CN(C)CCCNCc1ccc2c(c1)OCO2 [BCC0076253] | -1.24 | -0.43 |  |
| CSc1ccc(CNC2CN3CCC2CC3)cc1 (stereo not shown) [BCC0080607] | -0.99 | 2.8 |  |
| Cc1cc(C(=O)NCc2ccc(F)cc2)on1 [BCC0004615] | -12.9 | -13.9 |  |
| C=CCOc1ccc2[nH]c(C)c(C(=O)OCC)c2c1 [BCC0065386] | 4.81 | 1.12 |  |
| angiotensin II (AngII) (peptide) |  |  | IC50 [11]: 479 nM |
| O=C(Cn1nnc2ccccc21)N1CCC(n2c(=O)oc3ccccc32)CC1 [BCC0101075] | -4.37 | -10.8 |  |
| O=C(/C=C/c1nc2ccccc2o1)N1CCC(c2c[nH]c3ccccc23)CC1 [BCC0010913, (E)-3-(1,3-Benzoxazol-2-yl)-1-[4-(1H-indol-3-yl)piperidin-1-yl]prop-2-en-1-one] |  |  | Ki [9, 14]: 2750 nM; Ki [10, 15]: 1840 nM |
| O=C(CN1CCN(CC(=O)Nc2cccc([N+](=O)[O-])c2)CC1)Nc1cccc([N+](=O)[O-])c1 [BCC0036095] | -1.4 | 3.14 |  |
